Among the data in ChEMBL document CHEMBL1158233, “Cytotoxic Cembranoids from the Soft Corals Sinularia gibberosa and Sarcophyton trocheliophorum” (1996) are EC50 values, retold here.

≈ marks a conversion by molar mass, not a printed value. Bounds are passed on as bounds.

Holding throughout (assay type): functional
The subject of test [1] is A549. Nature of the test: Cytotoxicity against human A549 cells after 6 days by MTT assay. The following applies: A549, 144 h, read-out: ED50 (the source's name). Background: Tetrazolium assays rely on reduction of a dye to a coloured formazan, in cell work by metabolically active cells.
The test system of test [2] is HT-29. Description: Cytotoxicity against human HT29 cells after 6 days by MTT assay. The settings on record: HT-29, 144 h, read-out: ED50 (the source's name).
Test [3] relates to KB. Description: Cytotoxicity against human KB cells after 3 days by MTT assay. The following applies: 72 h, read-out: ED50 (the source's name).
Test [4] deals with P388. Nature of the test: Cytotoxicity against mouse P388 cells after 3 days by MTT assay. The following applies: P388, 72 h, read-out: ED50 (the source's name).

For the molecule `C/C1=C\C=C(\C(C)(C)O)CC[C@@]2(C)O[C@@H]2CC/C(C)=C/CC1`, the EC50 in test [1] turned out to be 1.03 µg/mL (≈ 3.38 µM); in test [2] it was 0.64 µg/mL (≈ 2.1 µM); in test [3] it was 0.63 µg/mL (≈ 2.07 µM); in test [4], 0.01 µg/mL (≈ 0.0328 µM).
In the case of `C/C1=C\CCC(C)(O)C2C=C(C(C)(C)O)C(C/C(C)=C/CC1)O2` (stereo not drawn), the EC50 was 1.7 µg/mL (≈ 5.3 µM) in test [1], 1.81 µg/mL (≈ 5.65 µM) in test [2], 17.1 µg/mL (≈ 53.4 µM) in test [3] and 0.23 µg/mL (≈ 0.718 µM) in test [4].
For `C/C1=C\C=C(\C(C)(C)O)C(O)C/C(C)=C/CC/C(C)=C/CC1` (stereo not drawn) the same measures were 20.2 µg/mL (≈ 66.2 µM), 0.29 µg/mL (≈ 0.952 µM), 14.9 µg/mL (≈ 49 µM) and 1.54 µg/mL (≈ 5.06 µM).
The like results for `CC1=C2CC/C(C)=C/CC[C@@](C)(O)[C@@H](O)CC/C(C)=C/[C@@H]2OC1=O` were, in that order, 24.7 µg/mL (≈ 73.7 µM), 22.9 µg/mL (≈ 68.4 µM), greater than 50 µg/mL and 3.27 µg/mL (≈ 9.78 µM).
The like results for `CC1=C2CC/C(C)=C/CC[C@]3(C)O[C@H]3CC/C(C)=C/[C@@H]2OC1` were, in that order, 15.7 µg/mL (≈ 52 µM), 16.1 µg/mL (≈ 53.1 µM), greater than 50 µg/mL and 3.87 µg/mL (≈ 12.8 µM).
For the molecule `COC(C)(C)/C1=C/[C@H]2O[C@]2(C)CC/C=C(\C)CC[C@H]2O[C@]2(C)CC1`, the EC50 in test [1] was greater than 50 µg/mL; in test [2], 0.36 µg/mL (≈ 1.08 µM); in test [3], greater than 50 µg/mL; in test [4], 3.26 µg/mL (≈ 9.75 µM).
On to `CC1=C2CC/C(C)=C/CC[C@]3(C)O[C@H]3CC/C(C)=C/[C@@H]2OC1=O` [SARCOPHINE], for which the EC50 is 10.4 µg/mL (≈ 32.8 µM) in test [1], 10.5 µg/mL (≈ 33.1 µM) in test [2], greater than 50 µg/mL in test [3] and 2.42 µg/mL (≈ 7.65 µM) in test [4].
